Experimental data reported in ChEMBL document CHEMBL4673406, “Discovery and Preclinical Evaluation of BMS-986242, a Potent, Selective Inhibitor of Indoleamine-2,3-dioxygenase 1” (ACS Med Chem Lett, 2021).

Experiments:
[1] = molecular target: Indoleamine 2,3-dioxygenase 1 (Mus musculus) (UniProt P28776); test: In vivo inhibition of IDO1 in nu/nu mouse xenografted with human SK-OV-3 cells assessed as reduction in kynurenine level at 30 mg/kg, po qd by HPLC-MS/MS analysis relative to control; type: functional, organism-based
[2] = molecular target: Indoleamine 2,3-dioxygenase 1 (Mus musculus) (UniProt P28776); test: In vivo inhibition of IDO1 in nu/nu mouse xenografted with human SK-OV-3 cells assessed as reduction in kynurenine level at 3 mg/kg, po qd by HPLC-MS/MS analysis relative to control; type: functional, organism-based
[3] = AUC in cynomolgus monkey at 1 mg/kg, iv; type: ADME, organism-based, Macaca fascicularis; set-up: dose 1 mg/kg; details: in vivo
[4] = Oral bioavailability in dog at 5 mg/kg; type: ADME, organism-based, Canis lupus familiaris; details: in vivo
[5] = Volume of distribution at steady state in mouse at 0.5 mg/kg, iv; type: ADME, organism-based; details: in vivo
[6] = molecular target: Neuronal acetylcholine receptor subunit alpha-7 (Homo sapiens, UniProt P36544); test: Inhibition of alpha7 nAChR (unknown origin)
[7] = Protein binding in mouse plasma assessed as free fraction; type: ADME, cell-free
Cytochrome P450 2C19 = Cytochrome P450 2C19 (Homo sapiens, UniProt P33261); test: Inhibition of human CYP2C19; type: ADME
Cytochrome P450 2C8 = molecular target: T1, Cytochrome P450 2C8 (Homo sapiens, UniProt P10632); test: Inhibition of human CYP2C8; type: ADME
T1 sequence (P10632 whole entry): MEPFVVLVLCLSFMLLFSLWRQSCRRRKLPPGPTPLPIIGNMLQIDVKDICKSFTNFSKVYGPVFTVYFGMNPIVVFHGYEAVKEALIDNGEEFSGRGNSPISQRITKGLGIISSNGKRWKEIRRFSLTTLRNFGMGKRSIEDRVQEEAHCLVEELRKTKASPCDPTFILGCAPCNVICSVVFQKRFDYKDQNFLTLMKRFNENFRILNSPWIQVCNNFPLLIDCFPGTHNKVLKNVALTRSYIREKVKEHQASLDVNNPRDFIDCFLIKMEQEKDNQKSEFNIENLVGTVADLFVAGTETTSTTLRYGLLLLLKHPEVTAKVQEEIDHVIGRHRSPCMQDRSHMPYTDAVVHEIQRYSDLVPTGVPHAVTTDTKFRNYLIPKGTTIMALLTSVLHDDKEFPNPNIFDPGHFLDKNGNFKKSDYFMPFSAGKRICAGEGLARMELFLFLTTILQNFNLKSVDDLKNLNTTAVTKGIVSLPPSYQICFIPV

[8] = Permeability across basal to apical side in human Caco-2 cells; type: ADME, cell-based; details: read-out: permeability
[9] = Metabolic stability in dog hepatocytes assessed as UGT-mediated compound glucuronidation by measuring half life; type: ADME, cell-based, Canis lupus familiaris, Hepatocyte
[10] = Metabolic stability in dog hepatocytes assessed as CYP450-mediated compound metabolism by measuring half life; type: ADME, cell-based, Canis lupus familiaris, Hepatocyte
[11] = Metabolic stability in rat hepatocytes assessed as CYP450-mediated compound metabolism by measuring half life; type: ADME, cell-based, Hepatocyte
[12] = molecular target: Indoleamine 2,3-dioxygenase 1 (Homo sapiens, UniProt P14902); test: Inhibition of IDO1 in IFNgamma/LPS-stimulated human whole blood preincubated for 4 hrs followed by IFNgamma/LPS stimulation and incubated for 18 hrs by Rapid-fire mass spectrometry analysis; type: tissue-based
[13] = molecular target: Indoleamine 2,3-dioxygenase 1 (Mus musculus, UniProt P28776); test: Inhibition of IDO1 in IFNgamma-stimulated mouse M109 cells preincubated for 2 hrs followed by IFNgamma stimulation and measured after 18 hrs by; type: cell-based
[14] = Half life in mouse at 0.5 mg/kg, iv; type: ADME, organism-based; details: in vivo
[15] = Half life in rat at 0.5 mg/kg, iv; type: ADME, organism-based; details: in vivo
in vitro = details: human, liver microsomes
Description: Metabolic stability in human liver microsomes assessed as parent compound remaining at 0.5 uM measured after 10 mins

Sequence of Indoleamine 2,3-dioxygenase 1 (Mus musculus) (P28776 whole entry, looked up): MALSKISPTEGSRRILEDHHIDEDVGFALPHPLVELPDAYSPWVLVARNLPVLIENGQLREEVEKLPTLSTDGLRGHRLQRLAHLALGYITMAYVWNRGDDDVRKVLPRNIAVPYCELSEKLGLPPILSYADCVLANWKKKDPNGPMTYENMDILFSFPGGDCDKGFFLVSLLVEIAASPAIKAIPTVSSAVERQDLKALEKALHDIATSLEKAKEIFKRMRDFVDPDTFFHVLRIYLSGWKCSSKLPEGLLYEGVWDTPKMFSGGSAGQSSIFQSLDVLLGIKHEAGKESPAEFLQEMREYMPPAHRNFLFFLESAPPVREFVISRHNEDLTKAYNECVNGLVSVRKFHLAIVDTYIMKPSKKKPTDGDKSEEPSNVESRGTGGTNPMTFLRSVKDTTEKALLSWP
Sequence of Indoleamine 2,3-dioxygenase 1 (Homo sapiens, UniProt P14902) (P14902 whole entry): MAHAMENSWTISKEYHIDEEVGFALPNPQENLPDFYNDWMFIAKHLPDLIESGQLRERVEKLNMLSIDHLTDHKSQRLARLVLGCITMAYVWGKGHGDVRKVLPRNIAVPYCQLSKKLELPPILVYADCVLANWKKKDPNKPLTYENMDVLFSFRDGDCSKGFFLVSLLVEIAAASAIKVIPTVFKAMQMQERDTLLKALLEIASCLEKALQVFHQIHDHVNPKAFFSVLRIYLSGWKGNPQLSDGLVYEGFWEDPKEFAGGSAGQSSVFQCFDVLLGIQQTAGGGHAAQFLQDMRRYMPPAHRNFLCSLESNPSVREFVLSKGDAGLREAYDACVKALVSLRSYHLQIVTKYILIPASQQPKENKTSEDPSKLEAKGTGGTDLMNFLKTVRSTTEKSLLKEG
Sequence of Cytochrome P450 2C19 (P33261 whole entry): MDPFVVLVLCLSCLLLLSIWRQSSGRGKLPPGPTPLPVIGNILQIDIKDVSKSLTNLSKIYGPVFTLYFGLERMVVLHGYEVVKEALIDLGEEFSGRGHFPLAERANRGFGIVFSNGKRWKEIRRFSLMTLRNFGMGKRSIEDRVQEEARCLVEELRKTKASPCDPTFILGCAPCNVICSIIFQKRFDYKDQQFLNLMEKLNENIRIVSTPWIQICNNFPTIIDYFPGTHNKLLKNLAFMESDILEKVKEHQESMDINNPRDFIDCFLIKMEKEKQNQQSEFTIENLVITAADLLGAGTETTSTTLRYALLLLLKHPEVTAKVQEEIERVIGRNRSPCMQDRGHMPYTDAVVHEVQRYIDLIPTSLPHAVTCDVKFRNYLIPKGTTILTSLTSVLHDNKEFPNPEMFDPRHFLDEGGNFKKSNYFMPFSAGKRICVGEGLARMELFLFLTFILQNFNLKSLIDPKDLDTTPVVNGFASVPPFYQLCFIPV
Sequence of Neuronal acetylcholine receptor subunit alpha-7 (P36544 whole entry): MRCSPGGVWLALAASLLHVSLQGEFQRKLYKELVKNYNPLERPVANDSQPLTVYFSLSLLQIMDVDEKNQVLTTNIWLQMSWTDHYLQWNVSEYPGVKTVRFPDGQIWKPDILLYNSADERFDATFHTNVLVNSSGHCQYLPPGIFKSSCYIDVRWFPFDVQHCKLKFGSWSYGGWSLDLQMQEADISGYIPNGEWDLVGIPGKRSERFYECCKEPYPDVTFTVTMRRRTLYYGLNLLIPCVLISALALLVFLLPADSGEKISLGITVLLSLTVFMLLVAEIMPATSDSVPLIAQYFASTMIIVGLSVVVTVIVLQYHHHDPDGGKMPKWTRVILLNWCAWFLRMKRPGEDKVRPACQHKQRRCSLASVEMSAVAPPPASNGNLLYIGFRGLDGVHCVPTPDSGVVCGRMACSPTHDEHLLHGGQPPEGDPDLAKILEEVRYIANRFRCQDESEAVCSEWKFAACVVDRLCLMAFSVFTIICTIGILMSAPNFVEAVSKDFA
Sequence of Indoleamine 2,3-dioxygenase 1 (Mus musculus, UniProt P28776) (P28776 whole entry): as the sequence (P28776 whole entry, looked up) above

inhibition [1]: 59%
inhibition [2]: 45%
AUC [3]: 3.4 µM·h
bioavailability [4]: 39%
Vdss [5]: 17 L/kg
IC50 [6]: > 6000 nM
Fu [7]: < 0.2%
IC50 (Cytochrome P450 2C19): 3370 nM
IC50 (Cytochrome P450 2C8): 1390 nM
Papp B→A [8]: 5.5 ×10⁻⁶ cm/s
half-life [9]: 33 min
half-life [10]: 10 min
half-life [11]: 10 min
IC50 [12]: 25 nM
IC50 [13]: 2 nM
t1/2 [14]: 8 min
t1/2 [15]: 4 min
remaining at 10 min, 0.5 µM (in vitro): 54%
Compound: C[C@@H](NC(=O)c1ccc(Cl)cc1)[C@H]1CC[C@@H](c2ccnc3ccc(F)cc32)CC1
